Data: ChEMBL document CHEMBL5344425, “Discovery of 5-(Pyrimidin-2-ylamino)-1H-indole-2-carboxamide Derivatives as Nur77 Modulators with Selective and Potent Activity Against Triple-Negative Breast Cancer” (J Med Chem, 2023)
Activity calls are given as the source filed them. No cut-off for these calls is given here.

Legend:
[1] = system: MDA-MB-231; assay: Induction of apoptosis in human MDA-MB-231 cells assessed as proportion of late apoptotic cells at 0.32 uM measured after 5 hrs by AnnexinV-FITC/PI staining based flow cytometry (reference value: 2.55%); type: functional
[2] = biological target: T1, Nuclear receptor subfamily 4immunitygroup A member 1 (Homo sapiens, UniProt P22736); assay: Induction of degradation of Myc-tagged Nur77 (unknown origin) transfected in human MDA-MB-231 cells at 2 to 5 uM measured after 6 hrs by western blot analysis; type: cell-based; conditions: dose 2-5 µM
[3] = system: MDA-MB-231; assay: Induction of apoptosis in human MDA-MB-231 cells assessed as proportion of late apoptotic cells at 2.5 uM measured after 5 hrs by AnnexinV-FITC/PI staining based flow cytometry (reference value: 2.55%); type: functional
[4] = Toxicity in Zebra fish AB embryo assessed as mortality rate at 1.25 uM measured after 24 to 72 hrs; design: species or system Danio rerio; conditions: zebrafish, 1.25 µM, time 24-72 hrs
[5] = system: T47D; assay: Antiproliferative activity against human T47D cells assessed as inhibition of cell growth measured after 24 hrs by MTT assay; type: functional, cell-based
[6] = biological target: T1, Nuclear receptor subfamily 4immunitygroup A member 1; assay: Modulation of Nur77 in human MDA-MB-231 cells assessed as increase in TP53 phosphorylation at Ser15 residue at 0.31 to 5 uM measured after 6 hrs by western blot analysis; type: cell-based; conditions: filed as modulator, dose 0.31-5 µM
[7] = system: MDA-MB-231; assay: Antiproliferative activity against human MDA-MB-231 cells assessed as inhibition of cell growth measured after 24 hrs by MTT assay; type: functional, cell-based; conditions: MDA-MB-231, 24 h
[8] = system: MDA-MB-231; assay: Induction of apoptosis in human MDA-MB-231 cells transfected with Nur77 siRNA assessed as PARP cleavage at 0.5 to 2 uM measured after 6 hrs by western blot analysis; type: functional, cell-based; conditions: dose 0.5-2 µM
[9] = system: T47D; assay: Antiproliferative activity against human T47D cells transfected with Nur77 siRNA assessed as inhibition of cell growth measured after 24 hrs by MTT assay; type: functional, cell-based
[10] = system: MDA-MB-231; assay: Induction of apoptosis in human MDA-MB-231 cells transfected with Myc-cmv assessed as PARP cleavage at 2 to 5 uM measured after 6 hrs by western blot analysis; type: functional, cell-based; conditions: dose 2-5 µM
[11] = system: MDA-MB-231; assay: Induction of apoptosis in human MDA-MB-231 cells transfected with Nur77 siRNA assessed as loss of mitochondrial membrane potential at 2 uM measured after 6 hrs by JC-1 staining based flow cytometry (reference value: 6.1%); type: functional
[12] = system: MDA-MB-231; assay: Induction of apoptosis in human MDA-MB-231 cells transfected with ctr siRNA assessed as early apoptotic cells at 2 uM measured after 6 hrs by AnnexinV-FITC/PI staining based flow cytometry (reference value: 1.88%); type: functional
[13] = Toxicity in BALB/c mouse xenografted with human MDA-MB-231 cells assessed as abnormal behaviour at 10 mg/kg, ip qd for 16 days; type: organism-based; conditions: in vivo, 384 h, time 16 day
[14] = system: MDA-MB-231; assay: Induction of apoptosis in human MDA-MB-231 cells assessed as proportion of late apoptotic cells at 5 uM measured after 5 hrs by AnnexinV-FITC/PI staining based flow cytometry (reference value: 2.55%); type: functional
[15] = system: MDA-MB-231; assay: Induction of apoptosis in human MDA-MB-231 cells assessed as PARP cleavage at 2.5 uM pretreated with caspase inhibitor, Z-VAD-FMK for 4 hrs followed by compound addition and measured after 6 hrs by western blot analysis; type: functional, cell-based
[16] = biological target: T1, Nuclear receptor subfamily 4immunitygroup A member 1; assay: Binding affinity to His-tagged Nur77 ligand binding domain (unknown origin) at 10 uM by surface plasmon resonance assay; conditions: filed as modulator
[17] = system: MDA-MB-231; assay: Induction of apoptosis in human MDA-MB-231 cells assessed as PARP cleavage measured after 6 hrs by western blot analysis; type: functional, cell-based; conditions: dose 0.5-5 µM
[18] = biological target: T1, Nuclear receptor subfamily 4immunitygroup A member 1; assay: Modulation of Nur77 in human MDA-MB-231 cells assessed as increase in TP53 phosphorylation at Ser37 residue at 0.31 to 5 uM measured after 6 hrs by western blot analysis; type: cell-based; conditions: filed as modulator, dose 0.31-5 µM
[19] = Toxicity in BALB/c mouse xenografted with human MDA-MB-231 cells assessed as morphological changes in liver at 10 mg/kg, ip qd for 16 days by Hematoxylin-Eosin staining based analysis; type: organism-based; conditions: in vivo, 384 h, time 16 day
[20] = system: HepG2; assay: Antiproliferative activity against human HepG2 cells assessed as inhibition of cell growth measured after 24 hrs by MTT assay; type: functional, cell-based; conditions: HepG2, 24 h
[21] = system: MDA-MB-231; assay: Induction of apoptosis in human MDA-MB-231 cells transfected with Nur77 siRNA assessed as late apoptotic cells at 1 uM measured after 6 hrs by AnnexinV-FITC/PI staining based flow cytometry (reference value: 3.97%); type: functional
[22] = system: MDA-MB-231; assay: Induction of apoptosis in human MDA-MB-231 cells assessed as PARP cleavage at 2 uM by western blot analysis; type: functional, cell-based; conditions: time 1-5 hrs, TDE = time-dependent effect
[23] = biological target: T1, Nuclear receptor subfamily 4immunitygroup A member 1; assay: Antagonist activity at Nur77 ligand binding domain (unknown origin) transfected in HEK293T cells cotransfected with pG5-Luc assessed as inhibition of receptor transcriptional activity at 1 uM measured after 12 hrs by luciferase reporter gene assay; type: cell-based; conditions: filed as antagonist
[24] = system: MDA-MB-231; assay: Induction of apoptosis in human MDA-MB-231 cells assessed as proportion of late apoptotic cells at 0.63 uM measured after 5 hrs by AnnexinV-FITC/PI staining based flow cytometry (reference value: 2.55%); type: functional
[25] = Toxicity in BALB/c mouse xenografted with human MDA-MB-231 cells assessed as body weight loss at 10 mg/kg, ip qd for 16 days; type: organism-based; conditions: in vivo, 384 h, time 16 day
[26] = system: MDA-MB-231; assay: Antitumor activity against human MDA-MB-231 cells xenografted in BALB/c mouse assessed as inhibition of tumor growth at 10 mg/kg, ip qd for 16 days; type: functional; conditions: MDA-MB-231, 384 h, time 16 day, read-out: TGI
[27] = system: MDA-MB-231; assay: Induction of apoptosis in human MDA-MB-231 cells transfected with ctr siRNA assessed as late apoptotic cells at 2 uM measured after 6 hrs by AnnexinV-FITC/PI staining based flow cytometry (reference value: 3.97%); type: functional
[28] = Toxicity in BALB/c mouse xenografted with human MDA-MB-231 cells assessed as morphological changes in lung at 10 mg/kg, ip qd for 16 days by Hematoxylin-Eosin staining based analysis; type: organism-based; conditions: in vivo, 384 h, time 16 day
[29] = system: MDA-MB-231; assay: Induction of apoptosis in human MDA-MB-231 cells assessed as proportion of early apoptotic cells at 5 uM measured after 5 hrs by AnnexinV-FITC/PI staining based flow cytometry (reference value: 3.35%); type: functional
[30] = system: MDA-MB-231; assay: Induction of apoptosis in human MDA-MB-231 cells assessed as proportion of late apoptotic cells at 1.25 uM measured after 5 hrs by AnnexinV-FITC/PI staining based flow cytometry (reference value: 2.55%); type: functional
[31] = Toxicity in Zebra fish AB embryo assessed as mortality rate at 1.25 to 5 uM measured after 24 to 72 hrs; design: species or system Danio rerio; conditions: zebrafish, dose lower 1.25 µM, time lower 24 hrs, dose upper 5 µM, time upper 72 hrs
[32] = Selectivity index, ratio of IC50 for cytotoxicity against human MCF-10A cells to IC50 for antiproliferative activity against human MDA-MB-231 cells; type: toxicity, cell-based; conditions: MCF-10A cells versus MDA-MB-231 cells, read-out: Ratio IC50

T1 sequence (P22736 whole entry): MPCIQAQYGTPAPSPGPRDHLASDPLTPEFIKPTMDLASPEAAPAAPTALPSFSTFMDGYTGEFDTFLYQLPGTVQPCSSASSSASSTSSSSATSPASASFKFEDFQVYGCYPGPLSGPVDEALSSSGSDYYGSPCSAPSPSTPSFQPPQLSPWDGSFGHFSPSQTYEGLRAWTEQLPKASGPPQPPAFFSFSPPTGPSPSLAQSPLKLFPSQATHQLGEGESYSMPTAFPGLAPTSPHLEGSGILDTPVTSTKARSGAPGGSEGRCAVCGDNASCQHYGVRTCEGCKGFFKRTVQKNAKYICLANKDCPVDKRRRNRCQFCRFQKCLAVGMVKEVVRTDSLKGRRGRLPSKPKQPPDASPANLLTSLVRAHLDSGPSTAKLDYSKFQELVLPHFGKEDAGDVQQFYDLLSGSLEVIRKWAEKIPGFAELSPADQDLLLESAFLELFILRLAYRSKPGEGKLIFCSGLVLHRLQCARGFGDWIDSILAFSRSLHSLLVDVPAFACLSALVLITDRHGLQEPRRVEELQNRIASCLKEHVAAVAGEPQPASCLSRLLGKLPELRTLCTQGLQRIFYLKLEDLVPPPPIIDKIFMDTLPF

**Q.** What does the source list for `CCN(CC)CCCNC(=O)c1cc2cc(Nc3nccc(-c4sc(NC)nc4C)n3)ccc2[nH]1`?
**A.** Activity [1]: 5.29%; Activity [2]: Active; Activity [3]: 16.69%; Activity [4]: Non-Toxic; IC50 [5]: 1.05 µM; Activity [6]: Active; IC50 [7]: 0.4 µM; Activity [8]: inactive; IC50 [9]: 6.34 µM; Activity [10]: Active; Activity [11]: 15.41%; Activity [12]: 19.23%; Activity [13]: Non-Toxic; Activity [14]: 21.84%; Activity [15]: inactive; Activity [16]: Active; Activity [17]: Dose-Dependent Effect; Activity [18]: Active; Activity [19]: Non-Toxic; IC50 [20]: 53.7 µM; Activity [21]: 2.24%; Activity [22]: Tde; inhibition [23]: Active; Activity [24]: 5.16%; Activity [25]: Non-Toxic; inhibition in vivo at 10 mg/kg [26]: 100%; Activity [27]: 13.04%; Activity [28]: Non-Toxic; Activity [29]: 52.78%; Activity [30]: 4.06%; Activity [31]: Non-Toxic; selectivity ratio [32]: 120
